Measured values from patent US20260325417A1, “TOPICAL SKIN COMPOSITION CONTAINING 1,3-PROPANEDIOL AS ACTIVE INGREDIENT FOR MAINTAINING MICROBIOME BALANCE IN SKIN” (ACTIVON CO.,LTD., priority 2022, published 2026).

Key:
[1] = tested on: S. aureus; assay: Comparison of diol compounds, growth of harmful bacteria; type: cell-based, Staphylococcus aureus
Source text: (§1) FIG. 4 illustrates the results of a comparative analysis of the effects of diol compounds, specifically 1,3-propanediol, 2-methyl-1,3-propanediol, 1,3-butanediol, 2,3-butanediol, 1,2-pentanediol, and 1,2-hexanediol on the growth of harmful bacteria (upper graph) and beneficial bacteria (lower graph). FIG. 4A: 1,3-propanediol, FIG. 4B: 2-methyl-1,3-propanediol; FIG. 4C: 1,3-butanediol; FIG. 4D: 2,3-butanediol; FIG. 4E: 1,2-pentanediol; FIG. 4F: 1,2-Hexanediol.
(§2) • 1) Staphylococcus epidermidis ATCC 12228 and Staphylococcus aureus ATCC 6538 strains were obtained from ThermoFisher Scientific and cultured in tryptic soy broth (culture conditions: 32° C. for 18 hours). After culturing, they were diluted with 0.85% NaCl to adjust the absorbance (600 nm) to 0.5-0.6. • 2) 1,3-propanediol was obtained from Sigma-Aldrich. • 3) 2-methyl-1,3-propanediol, 1,3-butanediol, 2,3-butanediol, 1,2-pentanediol, and 1,2-hexanediol were all obtained from Sigma-Aldrich. • 4) Fructan was obtained from Sigma-Aldrich. • 5) Yeast extract was obtained from Sigma-Aldrich.

[2] = tested on: S. epidermidis; assay: Comparison of diol compounds, growth of beneficial bacteria; type: cell-based, Staphylococcus epidermidis; parameters: key to Effect on the growth of beneficial bacteria (S. epidermidis): ++: Growth promotion; +: No effect; −: Growth inhibition; − −: 50% or more growth inhibition
Source text: as §1, §2

[3] = tested on: S. epidermidis; assay: Combination of 1,3-propanediol and yeast extract, growth of beneficial bacteria; type: cell-based, Staphylococcus epidermidis; details: 1,3-propanediol 1.5 wt %; yeast extract 0.00 wt %
[4] = tested on: S. aureus; assay: Combination of 1,3-propanediol and yeast extract, growth of harmful bacteria; type: cell-based, Staphylococcus aureus; details: 1,3-propanediol 1.5 wt %; yeast extract 0.00 wt %
Experimental: as §2
(§3) In order to evaluate the effect of 1,3-propanediol and fructan on the skin microbiome, the effect on the growth rate of Staphylococcus epidermidis ATCC 12228, a representative beneficial skin bacterium, and Staphylococcus aureus ATCC 6538, a harmful skin bacterium, was confirmed. Staphylococcus epidermidis ATCC 12228 and Staphylococcus aureus ATCC 6538 were cultured in tryptic soy broth at 32° C. for 18 hours or more, then diluted with 0.85% NaCl and adjusted to have an absorbance (600 nm) of 0.5 to 0.6.
(§4) S. epidermidis and S. aureus prepared above were inoculated to achieve a concentration of 1% (v/v) in 10% tryptic soy broth to which 1,3-propanediol was added at a fixed concentration of 1.5 wt % and fructan was added at each concentration in the table below. […]

[5] = tested on: Staphylococcus aureus ATCC 6538; assay: Combination of 1,3-propanediol and fructan, growth of harmful bacteria; type: cell-based; details: 1,3-propanediol 1.5 wt %; fructan 0.00 wt %
Experimental: as §2, §3, §4

[6] = tested on: Staphylococcus epidermidis ATCC 12228; assay: Growth of beneficial skin bacteria, single culture with 1,3-propanediol (absorbance 600 nm); type: cell-based; details: for Effect on the growth of beneficial bacteria (S. epidermidis): absorbance 600 nm, 2 to 16 hours vs control
Experimental: as §2
The effect of 1,3-propanediol on the growth of Staphylococcus epidermidis ATCC 12228 was analyzed.
(§5) For this purpose, 1,3-propanediol was diluted with 10% tryptic soy broth to prepare concentrations of 0.05, 0.1, 0.2, 0.5, 1.0, 3.0, 5.0, 10, 20, and 25 wt %.
After adding the prepared 1,3-propanediol at each concentration to 10% tryptic soy broth, S. epidermidis was inoculated to achieve a concentration of 1% (v/v).
(§6) Afterwards, the cells were cultured at a temperature of 32° C. for 24 hours, and the absorbance (600 nm) was measured at 2-hour intervals to analyze the growth of beneficial skin bacteria.
(§7) At this time, 10% tryptic soy broth to which 1,3-propanediol was not added was set as a control group.
The criteria for determining the effect on the growth of beneficial bacteria were as follows: when the absorbance (600 nm) was measured while culturing for 2 to 16 hours after inoculation of S. epidermidis, if the absorbance was higher than that of 10% tryptic soy broth (control group) to which 1,3-propanediol was not added, it was determined that the growth of S. epidermidis was promoted. If there was no difference, it was determined that there was no effect, and if the absorbance was lower, it was determined that there was inhibition. […] As a result, it can be seen that when the concentration of 1,3-propanediol is in a specific range exceeding 0.05 wt % and less than 20 wt %, it promotes the growth of S. epidermidis.

[7] = tested on: Staphylococcus epidermidis ATCC 12228; assay: Combination of 1,3-propanediol and fructan, growth of beneficial bacteria; type: cell-based; details: 1,3-propanediol 1.5 wt %; fructan 0.00 wt %
Experimental: as §2, §3, §4

[8] = tested on: Staphylococcus aureus ATCC 6538; assay: Growth of harmful skin bacteria, single culture with 1,3-propanediol (absorbance 600 nm); type: cell-based; details: for Effect on the growth of harmful bacteria (S. aureus): absorbance 600 nm, 2 to 16 hours vs control
Experimental: as §2
The effect of 1,3-propanediol on the growth of Staphylococcus aureus ATCC 6538 was analyzed.
as §5
After adding 1,3-propanediol prepared at each concentration to 10% tryptic soy broth, S. aureus was inoculated to achieve a concentration of 1% (v/v).
as §6, §7
The criteria for determining the effect on the growth of harmful bacteria were as follows: when the absorbance (600 nm) was measured while culturing for 2 to 16 hours after inoculation of S. aureus, if the absorbance was lower than that of 10% tryptic soy broth (control group) to which 1,3-propanediol was not added, it was determined that the growth of S. aureus was inhibited. If there was no difference in absorbance, it was determined that there was no effect.

[9] = when the concentration increases

CCCCC(O)CO (stereo not shown) [1,2-hexanediol]
Effect on the growth of harmful bacteria (S. aureus) ([1]; diol compound 0.1 wt %): +
Effect on the growth of harmful bacteria (S. aureus) ([1]; diol compound 1 wt %): ++
Effect on the growth of harmful bacteria (S. aureus) ([1]; diol compound 5 wt %): +++ (50% or more inhibition)
Effect on the growth of harmful bacteria (S. aureus) ([1]; diol compound 10 wt %): +++ (50% or more inhibition)
Effect on the growth of harmful bacteria (S. aureus) ([1]; diol compound 20 wt %): +++ (50% or more inhibition)
Effect on the growth of beneficial bacteria (S. epidermidis) ([2]; diol compound 0.1 wt %): ++
Effect on the growth of beneficial bacteria (S. epidermidis) ([2]; diol compound 1 wt %): −
Effect on the growth of beneficial bacteria (S. epidermidis) ([2]; diol compound 5 wt %): − − (50% or more growth inhibition)
Effect on the growth of beneficial bacteria (S. epidermidis) ([2]; diol compound 10 wt %): − − (50% or more growth inhibition)
Effect on the growth of beneficial bacteria (S. epidermidis) ([2]; diol compound 20 wt %): − − (50% or more growth inhibition)

CC(CO)CO [2-methyl-1,3-propanediol]
Effect on the growth of harmful bacteria (S. aureus) ([1]; diol compound 0.1 wt %): +
Effect on the growth of harmful bacteria (S. aureus) ([1]; diol compound 1 wt %): +
Effect on the growth of harmful bacteria (S. aureus) ([1]; diol compound 5 wt %): ++
Effect on the growth of harmful bacteria (S. aureus) ([1]; diol compound 10 wt %): +++ (50% or more inhibition)
Effect on the growth of harmful bacteria (S. aureus) ([1]; diol compound 20 wt %): +++ (50% or more inhibition)
Effect on the growth of beneficial bacteria (S. epidermidis) ([2]; diol compound 0.1 wt %): +
Effect on the growth of beneficial bacteria (S. epidermidis) ([2]; diol compound 1 wt %): +
Effect on the growth of beneficial bacteria (S. epidermidis) ([2]; diol compound 5 wt %): −
Effect on the growth of beneficial bacteria (S. epidermidis) ([2]; diol compound 10 wt %): − − (50% or more growth inhibition)
Effect on the growth of beneficial bacteria (S. epidermidis) ([2]; diol compound 20 wt %): − − (50% or more growth inhibition)

OCCCO [1,3-propanediol]
Effect on the growth of beneficial bacteria (S. epidermidis) [3]: + (Mild growth promotion (change in absorbance (increase) 3%))
Effect on the growth of harmful bacteria (S. aureus) ([1]; diol compound 0.1 wt %): ++
Effect on the growth of harmful bacteria (S. aureus) ([1]; diol compound 1 wt %): ++
Effect on the growth of harmful bacteria (S. aureus) ([1]; diol compound 5 wt %): +++ (50% or more inhibition)
Effect on the growth of harmful bacteria (S. aureus) ([1]; diol compound 10 wt %): +++ (50% or more inhibition)
Effect on the growth of harmful bacteria (S. aureus) ([1]; diol compound 20 wt %): +++ (50% or more inhibition)
Growth of harmful bacteria (summary) [1, 9]: the growth of harmful bacteria is inhibited
Effect on the growth of beneficial bacteria (S. epidermidis) ([2]; diol compound 0.1 wt %): ++
Effect on the growth of beneficial bacteria (S. epidermidis) ([2]; diol compound 1 wt %): ++
Effect on the growth of beneficial bacteria (S. epidermidis) ([2]; diol compound 5 wt %): +
Effect on the growth of beneficial bacteria (S. epidermidis) ([2]; diol compound 10 wt %): +
Effect on the growth of beneficial bacteria (S. epidermidis) ([2]; diol compound 20 wt %): +
Growth of beneficial bacteria (summary) [2, 9]: the growth of beneficial bacteria is promoted
Effect on the growth of harmful bacteria (S. aureus) [4]: ++ (Significant growth inhibition (change in absorbance (decrease) 5%))
Effect on the growth of harmful bacteria (S. aureus) [5]: ++ (Significant growth inhibition (change in absorbance (decrease) 5%))
Effect on the growth of beneficial bacteria (S. epidermidis) ([6]; 0.05 wt %): No effect
Effect on the growth of beneficial bacteria (S. epidermidis) ([6]; 0.1 wt %): Promoted
Effect on the growth of beneficial bacteria (S. epidermidis) ([6]; 0.2 wt %): Promoted
Effect on the growth of beneficial bacteria (S. epidermidis) ([6]; 0.5 wt %): Promoted
Effect on the growth of beneficial bacteria (S. epidermidis) ([6]; 1.0 wt %): Promoted
Effect on the growth of beneficial bacteria (S. epidermidis) ([6]; 3.0 wt %): Promoted
Effect on the growth of beneficial bacteria (S. epidermidis) ([6]; 5.0 wt %): Promoted
Effect on the growth of beneficial bacteria (S. epidermidis) ([6]; 10 wt %): Promoted
Effect on the growth of beneficial bacteria (S. epidermidis) ([6]; 20 wt %): No effect
Effect on the growth of beneficial bacteria (S. epidermidis) ([6]; 25 wt %): Inhibited
Concentration that inhibited the growth of S. epidermidis ([6]; single culture): exceeded 25 wt %
Effect on the growth of beneficial bacteria (S. epidermidis) [7]: + (Mild growth promotion (change in absorbance (increase) 3%))
Effect on the growth of harmful bacteria (S. aureus) ([8]; 0.05 wt %): No effect
Effect on the growth of harmful bacteria (S. aureus) ([8]; 0.1 wt %): No effect
Effect on the growth of harmful bacteria (S. aureus) ([8]; 0.2 wt %): No effect
Effect on the growth of harmful bacteria (S. aureus) ([8]; 0.5 wt %): No effect
Effect on the growth of harmful bacteria (S. aureus) ([8]; 1.0 wt %): No effect
Effect on the growth of harmful bacteria (S. aureus) ([8]; 3.0 wt %): Inhibited
Effect on the growth of harmful bacteria (S. aureus) ([8]; 5.0 wt %): Inhibited
Effect on the growth of harmful bacteria (S. aureus) ([8]; 10 wt %): Inhibited
Effect on the growth of harmful bacteria (S. aureus) ([8]; 20 wt %): Inhibited
Effect on the growth of harmful bacteria (S. aureus) ([8]; 25 wt %): Inhibited
Concentration that did not inhibit the growth of S. aureus ([8]; single culture): ≤ 1.0 wt %
